# Measurements from PMC9124866, “Structure-Activity Relationships of Dopamine Transporter Pharmacological Chaperones” (Frontiers in Cellular Neuroscience, 2022).
# Biological target: YFP-HA-βlac-DAT (Homo sapiens, UniProt Q01959)
# Test: β-lactamase (βlac) surface expression assay
# Assay type: cell-based
# Settings: HEK293, HEK cells expressing YFP-HA-βlac-DAT, overnight (16 h) incubation, up to 100 μM, normalized to vehicle; assumed effective EMax; read-out: EMax (%), WT DAT surface expression
# Procedure: The βlac surface expression assay was performed by following the method outlined in [Lam et al. (2013)] and [Beerepoot et al. (2015], [2016)]. The assay substrate nitrocefin (BD biosciences) was dissolved in dimethyl sulfoxide (DMSO) at a concentration of 10 mM and frozen at −80°C. Immediately before use, it was thawed and diluted to a final concentration of 100 μM in phosphate buffered saline (PBS). Cells (1 × 10^5/well) were seeded into a poly-D-lysine-coated 48-well plate and incubated for 24 h, prior to drug treatment. Drugs were added to individual wells at varying concentrations and incubated for 16 h. Subsequently, the media was aspirated, and the cells were washed twice with PBS. After removal of the final PBS wash, 200 μL of the nitrocefin solution was added to each well and the absorbance was immediately read. The EPOCH microplate spectrophotometer (BioTek) was used to measure absorbance (486 nm) for each well every minute for 30 min. The rate of reaction (slope of the curve) was used as the readout for the assay ([Beerepoot et al., 2015]). To determine suitable concentration ranges for each drug, they were dissolved in PBS or DMSO at the highest concentration possible. From here, the solutions were serial diluted 1/10 to yield 8 different concentrations. βLAC cells were then treated with the varying drug concentrations and cell viability was recorded using light microscopy. For additional measure, nitrocefin was added and the absorbance was read. For certain cases, Trypan Blue was used to quantitatively differentiate increased cell death from reduced cell division. […] Five or six doses were generally used in subsequent dosing experiments, starting at the highest non-toxic concentration.
# Data analysis was performed using GraphPad Prism (GraphPad Software, La Jolla, CA). Linear regression analysis was performed on βLAC time points to determine the slope, thus the rate of reaction, for comparison. Furthermore, the slope was also used to determine the degree of dopamine uptake in the dopamine uptake assays. Non-linear regression, fitting to the log(agonist) vs. response and log(inhibitor) vs. response model curve, was used to determine dose-response relationships of surface expression and uptake assays, respectively. One-way ANOVA with Dunnett’s post hoc-test was used for the β-lactamase assay and one-way ANOVA with Bonferroni correction was used for western blot analysis.
# Among these were RTI-1, RTI-2, RTI-5, RTI-6, RTI-11, RTI-20, and PAL-1007. […] The EMax values of all the analyzed drugs are included in Figure 1.
# The pharmacological chaperone ability of the 15 ibogaine and tryptamine analogs, shown in Figure 3, were measured using the βlac surface expression assay. HEK cells expressing YFP-HA-βlac-DAT were incubated overnight with these compounds at concentrations varying by log and half-log dilutions, starting at 100 μM final concentration. […] Furthermore, it was important to determine whether the β-carboline analogs could also elicit a chaperone effect because they are not classified as DAT ligands ([Cao et al., 2007]). […] Removing the nitrogen from the ring reduced efficacy as observed with frovatriptan (103 ± 1.4%). […] Evodiamine (54 ± 1.7%) had no chaperone ability and caused a substantial reduction in the surface expression of DAT. Dose-response curves were generated to assess the pharmacological chaperone potencies of select compounds (Figure 4).
# Chain of YFP-HA-βlac-DAT (Q01959 1-171 limits assumed): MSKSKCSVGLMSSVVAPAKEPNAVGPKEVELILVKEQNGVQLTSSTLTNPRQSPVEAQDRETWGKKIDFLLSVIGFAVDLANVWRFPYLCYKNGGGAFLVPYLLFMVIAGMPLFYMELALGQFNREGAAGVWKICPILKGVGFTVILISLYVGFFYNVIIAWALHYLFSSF
# Chain of YFP-HA-βlac-DAT (Q01959 237-620 limits assumed): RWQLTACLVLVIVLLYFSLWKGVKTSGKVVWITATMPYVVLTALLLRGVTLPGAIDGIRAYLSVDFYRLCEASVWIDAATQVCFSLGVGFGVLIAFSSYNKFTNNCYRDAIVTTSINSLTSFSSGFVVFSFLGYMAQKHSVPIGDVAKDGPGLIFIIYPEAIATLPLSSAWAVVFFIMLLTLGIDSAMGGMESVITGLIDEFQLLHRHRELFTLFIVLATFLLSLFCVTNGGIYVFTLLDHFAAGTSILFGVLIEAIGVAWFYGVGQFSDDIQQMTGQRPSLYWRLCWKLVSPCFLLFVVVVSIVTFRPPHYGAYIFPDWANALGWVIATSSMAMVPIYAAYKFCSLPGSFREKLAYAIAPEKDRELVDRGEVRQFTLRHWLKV
row,Compound,Emax [%]
1,"COc1ccc2[nH]c3c(c2c1)CCN(C)CC3 [Ibogainealog, ibogainealog]",169 ± 13.7
2,CN1CCc2[nH]c3ccccc3c2CC1 [Ibogaminalog],175 ± 12.9
3,"CN1CCc2[nH]c3ccc(O)cc3c2CC1 [Noribogainalog, noribogainalog]",185 ± 17.9
4,CC(NC1CC1)C(=O)c1cccc(Cl)c1 (centres unmarked) [PAL-433],93 ± 10.4
5,CC(NC1CC1)C(=O)c1cccc(Br)c1 (centres unmarked) [PAL-586],93 ± 5.8
6,CCCN(CCC)CCc1c[nH]c2ccc(OC)cc12 [PAL-709],97 ± 7.2
7,COc1cccc(C(=O)C(C)NC2CC2)c1 (centres unmarked) [PAL-789],93 ± 10.6
8,CC(NC1CC1)C(=O)c1ccc(F)c(Cl)c1 (centres unmarked) [PAL-819],90 ± 5
9,CC(NC1CCC1)C(=O)c1ccccc1 (centres unmarked) [PAL-933],114 ± 2.3
10,Cc1ccc(C(=O)C(C)N(C)Cc2ccccc2)cc1 (centres unmarked) [PAL-945],85
11,CC(NC1CCC1)C(=O)c1cccc(Cl)c1 (centres unmarked) [PAL-1007],136 ± 9.1
12,CC(NC1CCC1)C(=O)c1cccc(F)c1 (centres unmarked) [PAL-1008],96 ± 7.3
13,CNC(C)C(=O)c1cccc(C)c1 (centres unmarked) [PAL-1101],105 ± 3.6
14,C[C@@H](NC1CCC1)C(=O)c1cccc(Cl)c1 [PAL-1132],110
15,C[C@H](NC1CCC1)C(=O)c1cccc(Cl)c1 [PAL-1134],98
16,CC(NC1CC1)C(=O)c1cccc(C(F)(F)F)c1 (centres unmarked) [PAL-1178],92 ± 1.2
17,Cc1ccc(C(=O)C(C)N)cc1 (centres unmarked) [PAL-1270],104 ± 2.3
18,CC(NC1CCC1)C(=O)c1c[nH]c2ccccc12 (centres unmarked) [PAL-1407],98 ± 3.9
19,Cc1cccc(C(=O)C(C)NC2CCC2)c1 (centres unmarked) [PAL-1411],110 ± 4.5
20,CC(NC1CCC1)C(=O)c1ccc2c(c1)OCO2 (centres unmarked) [PAL-1414],102
21,CC(C)N(CCc1c[nH]c2cccc(O)c12)C(C)C [PAL-1416],127 ± 6.6

row,Compound,Emax [%]
1,CC(NC(C)(C)C)C(=O)c1ccccc1 (centres unmarked) [PAL-1463],117
2,COc1cccc(C(=O)C(C)NC(C)(C)C)c1 (centres unmarked) [PAL-1465],91
3,CC(NC(C)(C)C)C(=O)c1cccc(F)c1 (centres unmarked) [PAL-1466],100
4,CC(C)NC(C)C(=O)c1cccc(Cl)c1 (centres unmarked) [PAL-1467],100 ± 4
5,CC(Cc1cccc(Cl)c1)NC(C)(C)C (centres unmarked) [PAL-1468],117
6,CC(NC(C)(C)C)C(=O)c1cccc(Br)c1 (centres unmarked) [RTI-1],161 ± 2.7
7,CC(NC(C)(C)C)C(=O)c1ccc(Br)cc1 (centres unmarked) [RTI-2],127 ± 2.6
8,CC(NC(C)(C)C)C(=O)c1ccc(Cl)cc1 (centres unmarked) [RTI-3],113 ± 6.2
9,CC(NC(C)(C)C)C(=O)c1ccc(Cl)c(Cl)c1 (centres unmarked) [RTI-4],110 ± 5.7
10,Cc1cccc(C(=O)C(C)NC(C)(C)C)c1 (centres unmarked) [RTI-6],134 ± 9.6
11,CC(C(=O)c1cccc(Cl)c1)N1CCCCC1 (centres unmarked) [RTI-7],102 ± 3.9
12,CC(C(=O)c1cccc(Cl)c1)N(C)C (centres unmarked) [RTI-8],107 ± 6.3
13,CC(C(=O)c1cccc(Cl)c1)N(C)C(C)(C)C (centres unmarked) [RTI-9],87 ± 14.6
14,CCC(NC(C)(C)C)C(=O)c1cccc(Cl)c1 (centres unmarked) [RTI-11],131 ± 3.7
15,CC(NC(C)(C)C)C(=O)c1ccc(F)c(F)c1 (centres unmarked) [RTI-13],99 ± 4.3
16,CC(NC(C)(C)C)C(=O)c1cc(Cl)cc(Cl)c1 (centres unmarked) [RTI-17],78 ± 2.8
17,CC1NC(C)(C)COC1(O)c1cc(F)cc(F)c1 (centres unmarked) [RTI-18],122
18,Cc1ccc(C(=O)C(C)NC(C)(C)C)cc1Cl (centres unmarked) [RTI-20],147 ± 8
19,CC1NC(C)(C)COC1(O)c1cc(Cl)cc(Cl)c1 (centres unmarked) [RTI-21],103 ± 3.7
20,"COc1ccc2c3c([nH]c2c1)CCN(C)CC3 [Tabernanthalog, tabernanthalog]",179 ± 9.1
21,"NCCc1c[nH]c2ccccc12 [Tryptamine, tryptamine, reference compound]",104 ± 1.6

# Same assay, conditions: HEK293, HEK cells expressing YFP-HA-βlac-DAT, overnight incubation, normalized to vehicle; read-out: EMax (%), WT DAT surface expression
row,Compound,Emax [%]
1,"CN[C@@H](C)[C@H](O)c1ccccc1 [Ephedrine, ephedrine, reference compound]",128 ± 4.7

# Same assay, conditions: HEK293, read-out: EMax (%), WT DAT surface expression, HEK cells expressing YFP-HA-βlac-DAT, overnight (16 h) incubation, up to 100 μM, normalized to vehicle; assumed effective EMax
row,Compound,Emax [%]
1,"CC1NC(C)(C)COC1(O)c1cccc(Cl)c1 (centres unmarked) [6-Hydroxybupropion, 6-hydroxybupropion, reference compound]",148 ± 5.4
2,"CN1CCc2[nH]c3ccc(F)cc3c2CC1 [Fluorogainalog, fluorogainalog]",219 ± 29
3,"CN[C@@H]1CCc2[nH]c3ccc(C(N)=O)cc3c2C1 [Frovatriptan, frovatriptan, reference compound]",103 ± 1.4
4,"CC[C@H]1C[C@@H]2C[C@H]3c4[nH]c5ccccc5c4CCN(C2)[C@@H]13 [Ibogamine, reference compound]",202 ± 7.1
5,"COc1ccc2[nH]c3c(c2c1)CCNC3 [Pinoline, pinoline, reference compound]",141 ± 4.4
6,CC(CNC(C)(C)C)C(=O)c1cccc(Cl)c1 (centres unmarked) [RTI-10],36 ± 1.4
7,"COc1ccc2c3c([nH]c2c1)C(C)NCC3 (centres unmarked) [Tetrahydroharmine, tetrahydroharmine]",137 ± 6.8

# Same assay, conditions: HEK cells expressing YFP-HA-βlac-DAT, overnight (16 h) incubation, up to 100 μM, normalized to vehicle; assumed effective EMax
row,Compound,"EMax (%), WT DAT surface expression [%]"
1,evodiamine [reference compound],54 ± 1.7

# Biological target: T1, WT DAT (YFP-HA-DAT) (Homo sapiens, UniProt Q01959)
# T1 construct: expressed in transfected cells; host or cells: HEK293
# Test: Western blot of mature WT DAT protein levels
# Assay type: cell-based
# Settings: overnight 100 μM
# Procedure: (§1) Cells (1 × 10^6 cells/well) were seeded onto a 6-well plate and incubated for 24 h. Cells were then treated with drugs and incubated for 16 h. After the incubation period, cells were lysed in RIPA buffer supplemented with protease inhibitors (working concentrations: pepstatin A, 5 μg/mL; leupeptin, 10 μg/mL; aprotinin, 1.5 μg/mL; benzamidine, 0.1 μg/mL; PMSF, 0.1 mM) on ice. At 4°C, cell lysates were gently shaken for 15 min followed by centrifugation at 15,000 rpm for 15 min to pellet debris. The Pierce BCA protein assay kit (Thermo Fisher Scientific, Canada) was used to determine the protein concentration of the supernatant. To reach a concentration of 40 μg of protein per 20 μL, samples were diluted in fresh RIPA buffer with 12.5% Laemmli sample buffer and 2.5% β-Mercaptoethanol prior to being heated to 55°C. The protein was then loaded on a 7.5 or 10% SDS-PAGE gel and run at 100 V for approximately an hour or until the dye front reached the bottom of the gel. Next, protein was transferred to a PVDF membrane at 22 V for 16 h or 100 V for 1 h. Blots were blocked with LI-COR blocking buffer for 1 h and incubated for 1 h at room temperature with rabbit anti-GFP (1:1,000 dilution; Life Technologies, cat#A11122). After washing three times with TBST, blots were incubated with goat anti-rabbit IRDye-680RD secondary antibody (1:15,000; LI-COR, cat#926-68071). As a loading control, blots were incubated with mouse anti-GAPDH (1:5,000, Sigma-Aldrich, Canada, cat#G8795) prior to secondary antibody goat anti-mouse IRDye-800GR (1:5,000 dilution, Rockland, Limerick, PA, cat#610-132-007). All antibodies were diluted in LI-COR blocking buffer. Additionally, REVERT total protein staining (LI-COR, Lincoln, NE) was used as a loading control. […] Mature, fully glycosylated DAT (mDAT = 110 kDa) and immature, ER-resident DAT (iDAT = 75 kDa) were visualized using the Odyssey Imaging System (LI-COR, Lincoln, NE) and Image Studio Version 5.2 software (Supplementary Figure 1).
# (§2) We next assessed whether drugs that increase DAT surface expression also increase total protein levels of DAT. Cells expressing YFP-HA-DAT were incubated with select test compounds and DAT protein levels were examined by western blot. The effects of the compounds were assessed on WT DAT and K590A DAT. The K590A mutant is a well-characterized ER-retained, trafficking-deficient DAT mutant ([Miranda et al., 2004]) that can be rescued by pharmacological chaperones ([Beerepoot et al., 2016]).
# (§3) FIGURE 5 Effect of noribogaine, tetrahydroharmine, PAL-594, bicifadine, and RTI-20 on WT and K590A DAT expression. […] (B) Quantification of WT mDAT protein levels. […] (D) Quantification of K590A mDAT protein levels. […]
# T1 sequence (Q01959 whole entry): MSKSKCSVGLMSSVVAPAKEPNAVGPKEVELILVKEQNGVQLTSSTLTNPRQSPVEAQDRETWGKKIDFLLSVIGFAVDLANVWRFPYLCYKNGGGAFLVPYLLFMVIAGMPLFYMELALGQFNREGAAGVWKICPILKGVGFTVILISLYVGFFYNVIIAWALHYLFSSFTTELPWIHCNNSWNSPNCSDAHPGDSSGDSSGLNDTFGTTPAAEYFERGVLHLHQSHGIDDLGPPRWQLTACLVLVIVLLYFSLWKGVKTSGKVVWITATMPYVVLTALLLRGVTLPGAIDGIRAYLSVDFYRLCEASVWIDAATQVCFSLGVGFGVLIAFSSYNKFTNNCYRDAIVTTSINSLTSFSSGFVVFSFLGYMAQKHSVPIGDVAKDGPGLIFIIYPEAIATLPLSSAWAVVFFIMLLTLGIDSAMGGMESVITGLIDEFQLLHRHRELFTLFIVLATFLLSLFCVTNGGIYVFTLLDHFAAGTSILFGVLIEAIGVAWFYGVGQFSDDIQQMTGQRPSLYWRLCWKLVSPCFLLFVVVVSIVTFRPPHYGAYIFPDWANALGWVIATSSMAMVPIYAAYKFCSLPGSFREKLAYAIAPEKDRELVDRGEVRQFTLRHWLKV
row,Compound,mature WT DAT (mDAT) protein levels
1,Cc1ccc(C(=O)C(C)NC(C)(C)C)cc1Cl (centres unmarked) [RTI-20],significantly increase

# Biological target: T2, K590A DAT (Homo sapiens, UniProt Q01959, K590A)
# T2 construct: expressed in transfected cells; host or cells: HEK293
# Test: Western blot of mature K590A DAT protein levels
# Assay type: cell-based
# Settings: overnight treatment
# Procedure: as §1, §2, §3
# T2 sequence (Q01959 whole entry K590A): as the sequence (Q01959 whole entry) above, with K590A counted along it
row,Compound,K590A DAT (mDAT) protein levels
1,"COc1ccc2c3c([nH]c2c1)C(C)NCC3 (centres unmarked) [Tetrahydroharmine, tetrahydroharmine]",statistically significant effect
